Data from patent US9420813B2, “Sweetener” (AJINOMOTO CO., INC., priority 2007, dated 2016).
*1 amine or outer side, *2 acyl side, *3 side chain or, on linkers, in order; H or OH if unused. Where no end group is shown, it is not given here. [ ]: non-standard residue; d: D form. γGlu = O=C(O)[C@H](CCC(=O)[*:2])N[*:1]; Met(O) = CS(=O)CC[C@H](N)C(=O)O; Orn = NCCC[C@H](N)C(=O)O

Target: T1, human calcium receptor (Homo sapiens, UniProt P41180)
T1 construct: expressed in transfected cells; host or cells: Xenopus laevis oocytes injected with receptor cRNA; the gene was amplified by PCR from human kidney cDNA (Clontech) and cloned in pBR322
T1 sequence (P41180 20-1078): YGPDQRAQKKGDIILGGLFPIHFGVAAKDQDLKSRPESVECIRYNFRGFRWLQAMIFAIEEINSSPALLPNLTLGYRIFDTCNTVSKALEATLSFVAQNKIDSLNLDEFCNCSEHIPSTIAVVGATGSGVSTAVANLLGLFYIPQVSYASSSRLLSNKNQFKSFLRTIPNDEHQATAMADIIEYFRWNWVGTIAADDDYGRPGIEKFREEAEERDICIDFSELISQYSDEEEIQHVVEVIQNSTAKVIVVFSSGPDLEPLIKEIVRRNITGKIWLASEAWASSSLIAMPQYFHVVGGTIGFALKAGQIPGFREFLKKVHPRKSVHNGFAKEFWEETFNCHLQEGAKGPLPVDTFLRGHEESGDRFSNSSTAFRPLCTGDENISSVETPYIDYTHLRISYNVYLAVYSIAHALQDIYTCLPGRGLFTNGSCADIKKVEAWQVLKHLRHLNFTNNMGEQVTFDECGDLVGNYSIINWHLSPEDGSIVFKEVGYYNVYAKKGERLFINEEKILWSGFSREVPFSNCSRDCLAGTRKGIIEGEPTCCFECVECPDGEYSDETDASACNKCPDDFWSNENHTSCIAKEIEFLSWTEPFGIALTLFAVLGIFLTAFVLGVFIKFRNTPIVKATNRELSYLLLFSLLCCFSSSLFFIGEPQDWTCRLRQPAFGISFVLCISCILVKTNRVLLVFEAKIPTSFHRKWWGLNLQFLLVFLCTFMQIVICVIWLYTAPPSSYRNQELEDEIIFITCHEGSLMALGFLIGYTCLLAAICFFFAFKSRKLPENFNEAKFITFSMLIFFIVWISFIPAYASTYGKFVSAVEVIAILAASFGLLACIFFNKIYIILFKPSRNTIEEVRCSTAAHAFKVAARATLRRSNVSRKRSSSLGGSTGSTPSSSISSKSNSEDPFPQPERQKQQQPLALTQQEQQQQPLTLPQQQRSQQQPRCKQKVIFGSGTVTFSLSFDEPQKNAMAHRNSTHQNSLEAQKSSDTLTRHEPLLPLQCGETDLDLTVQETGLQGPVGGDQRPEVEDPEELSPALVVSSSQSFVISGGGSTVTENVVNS
Assay: Calcium receptor-activating effect, Ca ion concentration-dependent Cl ionic current in Xenopus laevis oocyte expression system
Assay type: cell-based
Details: amino acid added at 10 mM
Experimental: For evaluation of the calcium receptor-activating effect, Ca ion concentration-dependent Cl ionic current measuring method using a Xenopus laevis oocyte expression system was used. If activator is added to Xenopus laevis oocytes in which the calcium receptor is expressed, intracellular Ca ions increase. Then, the Ca ion concentration-dependent Cl channel opens, and the intracellular current value changes as an ionic current. By measuring the change in the intracellular current value, whether the calcium receptor-activating effect is present or not can be determined.
Specifically, the abdomen of Xenopus laevis was opened, and an egg batch was taken out and then treated with a 1% collagenase solution at 20° C. for 2 hours to obtain individual oocytes. Into each oocyte, 50 nl of 1 μg/μl receptor cRNA or 50 nl of sterilized water per oocyte were injected by using a micro glass capillary, and the oocytes were cultured at 18° C. for 2 to 3 days. For the culture, a solution obtained by adding 2 mM of pyruvic acid, 10 U/ml of penicillin and 10 μg/ml of streptomycin to the solution in Reference Example 2 was used. After the culture, a test solution was added to the oocytes injected with cRNA or sterilized water. Electrophysiological measurement was performed by using an amplifier Geneclamp 500 (manufactured by Axon) and recording software AxoScope 9.0 (manufactured by Axon). The oocytes were voltage-clamped at −70 mV by the double electrode voltage clamp method, and the intracellular current via the Ca ion concentration-dependent Cl ion was measured. The maximum value of the intracellular currents was defined as the response current value.
The ability of L-amino acids to activate the calcium receptor was evaluated by using the method described in Reference Example 6. That is, oocytes injected with cRNA of the calcium receptor or sterilized water were prepared, and voltage-clamped at −70 mV by the double electrode voltage clamp method. To the voltage-clamped oocytes, alanine (10 mM), arginine (10 mM), asparagine (10 mM), aspartic acid (10 mM), cysteine (10 mM), glutamine (10 mM), glutamic acid (10 mM), glycine (10 mM), histidine (10 mM), isoleucine (10 mM), leucine (10 mM), lysine (10 mM), methionine (10 mM), phenylalanine (10 mM), proline (10 mM), serine (10 mM), threonine (10 mM), tryptophan (10 mM), tyrosine (10 mM), valine (10 mM), ornithine (10 mM), taurine (10 mM) or hydroxyproline (10 mM) was added, and Ca ion concentration-dependent Cl response current was measured. […] 25, 2000, 97(9): 4814-9.
The effect of D-cysteine for activating a calcium receptor was evaluated by using the method described in Reference Example 6. That is, oocytes injected with cRNA of the calcium receptor or sterilized water were prepared, and voltage-clamped at −70 mV by the double electrode voltage clamp method. To the voltage-clamped oocytes, D-cysteine (10 mM), L-cysteine (10 mM), D-tryptophan (10 mM) or L-tryptophan (10 mM) was added, and Ca ion concentration-dependent Cl response current was measured.
The effect of peptide for activating calcium receptor was evaluated by using the method described in Reference Example 6. That is, oocytes injected with cRNA of the calcium receptor or sterilized water were prepared, and voltage-clamped at −70 mV by the double electrode voltage clamp method. To the voltage-clamped oocytes, γ-Glu-Cys-Gly (50 μM), γ-Glu-Cys(SNO)-Gly (50 μM), γ-Glu-Ala (50 μM), γ-Glu-Gly (500 μM), γ-Glu-Cys (50 μM), γ-Glu-Met (500 μM), γ-Glu-Thr (50 μM), γ-Glu-Val (50 μM), γ-Glu-Orn (500 μM), Asp-Gly (1 mM), Cys-Gly (1 mM), Cys-Met (1 mM), Glu-Cys (50 μM), Gly-Cys (500 μM) or Leu-Asp (1 mM) was added, and Ca ion concentration-dependent Cl response current was measured.
The ability of a peptide to activate calcium receptor was evaluated in the same manner as that of Reference Example 10.
For `N[C@@H](Cc1ccc(O)cc1)C(=O)O` [tyrosine, reference compound], the “calcium receptor-activating effect (Ca ion concentration-dependent Cl response current)” value (shortened to “calcium receptor-activating effect”) was “definite calcium receptor-activating effect”.
With `N[C@@H](Cc1c[nH]c2ccccc12)C(=O)O` [tryptophan, reference compound] the “calcium receptor-activating effect” value was “definite calcium receptor-activating effect”.
With `N[C@@H](Cc1ccccc1)C(=O)O` [phenylalanine, reference compound] the “calcium receptor-activating effect” value was “definite calcium receptor-activating effect”.
For `N[C@@H](CS)C(=O)O` [cysteine, reference compound], the “calcium receptor-activating effect” value was “definite calcium receptor-activating effect”.
For `N[C@@H](Cc1c[nH]cn1)C(=O)O` [histidine, reference compound], the “calcium receptor-activating effect” value was “definite calcium receptor-activating effect”.
With `N[C@H](CS)C(=O)O` [D-cysteine] the “calcium receptor-activating effect” value was “definite calcium receptor-activating effect”.

Same assay, conditions: peptide added at 50 μM
For [γGlu]-Val, the “effect for activating calcium receptor (Cl response current)” value (“effect for activating calcium receptor” below) was “definite effect for activating calcium receptor”.
For [γGlu]-Ala, the “effect for activating calcium receptor” value was “definite effect for activating calcium receptor”.
With [γGlu]-Thr the “effect for activating calcium receptor” value was “definite effect for activating calcium receptor”.
With [γGlu]-Cys the “effect for activating calcium receptor” value was “definite effect for activating calcium receptor”.
With Glu-Cys the “effect for activating calcium receptor” value was “definite effect for activating calcium receptor”.
In the case of `N[C@@H](CCC(=O)N[C@@H](CSN=O)C(=O)NCC(=O)O)C(=O)O` [γ-Glu-Cys(SNO)-Gly], the “effect for activating calcium receptor” value is reported as “definite effect for activating calcium receptor”.

Same assay, conditions: peptide added at 500 μM
In the case of [γGlu]-Gly, the “effect for activating calcium receptor” value is reported as “definite effect for activating calcium receptor”.
For γ-Glu-Orn, the “effect for activating calcium receptor” value was “definite effect for activating calcium receptor”.
With Gly-Cys the “effect for activating calcium receptor” value was “definite effect for activating calcium receptor”.

Same assay, conditions: peptide added at 1 mM
With Leu-Asp the “effect for activating calcium receptor” value was “definite effect for activating calcium receptor”.
In the case of Cys-Met, the “effect for activating calcium receptor” value is reported as “definite effect for activating calcium receptor”.
For Asp-Gly, the “effect for activating calcium receptor” value was “definite effect for activating calcium receptor”.
For Cys-Gly, the “effect for activating calcium receptor” value was “definite effect for activating calcium receptor”.

Same assay, conditions: peptide added at 1,000 to 0.1 μM; Ca ion concentration-dependent Cl response current; oocytes voltage-clamped at −70 mV
In the case of [γGlu]-Val-Met, the “Activity (lowest concentration at which current is detected)” value (“Activity” below) is reported as 1,000 μM.
With [γGlu]-Val-Arg the “Activity” value was 1,000 μM.
In the case of γ-Glu-Val-Asp, the “Activity” value is reported as 1,000 μM.
For [γGlu]-Val-Phe, the “Activity” value was 30 µM.
With γ-Glu-Cys(S-Me)-Gly the “Activity” value was 3 µM.
With [γGlu]-Val-Val the “Activity” value was 1,000 μM.
With [γGlu]-Val-Thr the “Activity” value was 1,000 μM.
In the case of γ-Glu-t-Leu, the “Activity” value is reported as 100 µM.
With [γGlu]-Val-Asn the “Activity” value was 30 µM.
For [γGlu]-Val-Gln, the “Activity” value was 10 µM.
For [γGlu]-Val-Glu, the “Activity” value was 1,000 μM.
For [γGlu]-Val-Pro, the “Activity” value was 30 µM.
For [γGlu]-Val-NH2, the “Activity” value was 1,000 μM.
In the case of [γGlu]-[Met(O)], the “Activity” value is reported as 1,000 μM.
With γ-Glu-Val-ol the “Activity” value was 1,000 μM.
For [γGlu]-Ser-Gly, the “Activity” value was 30 µM.
In the case of γ-Glu-Tau, the “Activity” value is reported as 300 µM.
For γ-Glu-Cys(S-allyl)-Gly, the “Activity” value was 100 µM.
In the case of [γGlu]-Gly-Gly [γ-Glu-Glγ-Gly], the “Activity” value is reported as 30 µM.
With [γGlu]-Val-Ser the “Activity” value was 30 µM.
With [γGlu]-Val-Cys the “Activity” value was 10 µM.
For [γGlu]-Val-[Orn], the “Activity” value was 100 µM.
In the case of [γGlu]-Val-His, the “Activity” value is reported as 100 µM.
In the case of [γGlu]-[γGlu]-Val, the “Activity” value is reported as 1,000 μM.
For [γGlu]-Val-Lys, the “Activity” value was 1,000 μM.

System: not listed separately
Assay: Quantitative sensory evaluation test, intensity of kokumi-imparting activity
Details: sample 0.1 g/dl; control 0, glutathione 3 points; n=3
Experimental: The quantitative sensory evaluation test was performed as follows. […] When a sample is acidic when dissolved, the pH was adjusted with NaOH to pH 6.8 to 7.2 before use. Because it is known that glutathione can impart kokumi to a food, glutathione was used as a comparative control. The test was performed with n=3 based on the following sensory evaluation scores: control was given 0 points, glutathione addition was given 3 points. […] It should be noted that the term “initial and middle taste” is a collective term of the initial taste and middle taste.
The quantitative sensory evaluation test was performed as follows. […] When a sample is acidic when dissolved, the pH of the sample was adjusted with NaOH to pH 6.8 to 7.2 before use. The test was performed with n=5 based on the following sensory evaluation scores: control was given 0 point and glutathione addition was given 3 points.
The quantitative sensory evaluation test was performed as follows. […] As for a sample which is acidic when the sample is dissolved, pH of the sample was adjusted with NaOH to pH 6.8 to 7.2 before use. The test was performed with n=12 based on the following sensory evaluation scores: control: 0 point and glutathione addition: 3 points.
With [γGlu]-Val the “Kokumi intensity, aftertaste” value was 1.0 points and the “Kokumi intensity, initial and middle taste” value was 3.0 points.
For [γGlu]-Ala, the “Kokumi intensity, aftertaste” value was 0.2 points and the “Kokumi intensity, initial and middle taste” value was 0.5 points.

Same assay, conditions: sample 0.1 g/dl; control 0, glutathione 3 points; n=5
With [γGlu]-Val the “Kokumi intensity, aftertaste” value was 1.0 points and the “Kokumi intensity, initial and middle taste” value was 3.0 points.
In the case of [γGlu]-Cys, the “Kokumi intensity, aftertaste” value is reported as 2.0 points and the “Kokumi intensity, initial and middle taste” value is reported as 2.0 points.

Same assay, conditions: sample 0.1 g/dl; n=5
With [γGlu]-Cys the Taste profile was “A slightly”.
